Columns and labels:
[1] = Half life in human liver microsomes; type: ADME, Microsome
[2] = Half life in rat liver microsomes; type: ADME, Microsome
Mus musculus [3] = assay: Toxicity in nude BALB/c mouse xenografted with human HCT116 cells assessed as body weight loss at 200 mg/kg, po QD for 21 days measured on day 19; type: organism-based, HCT-116; parameters: dose 200 mg/kg, route oral; details: in vivo, 504 h
[4] = Kinetic solubility of the compound at pH 7 with […] DMSO; type: physicochemical; details: buffer, read-out: Kinetic_solubility
Mus musculus [5] = assay: Toxicity in athymic nu/nu Harlan mouse xenografted with human HCT116 cells assessed as body weight loss at 200 mg/kg, po QD for 21 days measured on day 8; type: organism-based, HCT-116; parameters: dose 200 mg/kg, route oral; details: in vivo, 504 h
Mus musculus [6] = assay: Toxicity in nude BALB/c mouse xenografted with human HCT116 cells assessed as mouse survival at 200 mg/kg, po QD for 21 days measured on day 22; type: organism-based, HCT-116; parameters: dose 200 mg/kg, route oral; details: in vivo, 504 h
[7] = Half life in mouse liver microsomes; type: ADME, Microsome; details: liver microsomes
[8] = Oral bioavailability in nude BALB/c mouse at 50 mg/kg; type: ADME, organism-based; details: in vivo
COLO 205 = assay: Antiproliferative activity against human COLO205 cells after 96 hrs by celltiter 96 assay; type: functional, cell-based; details: COLO 205, 96 h
Mus musculus [9] = assay: Toxicity in nude BALB/c mouse xenografted with human A2780 cells assessed as maximum body weight loss at 200 mg/kg, po QD for 21 days measured on day 13; type: organism-based; parameters: dose 200 mg/kg, route oral; details: in vivo, 504 h
Mus musculus [10] = assay: Toxicity in athymic nu/nu Harlan mouse xenografted with human HCT116 cells assessed as mouse survival at 200 mg/kg, po QD for 21 days measured on day 22; type: organism-based, HCT-116; parameters: dose 200 mg/kg, route oral; details: in vivo, 504 h
[11] = Half life in dog liver microsomes; type: ADME, Canis lupus familiaris, Microsome
Mus musculus [12] = assay: Toxicity in athymic nu/nu Harlan mouse xenografted with human HCT116 cells assessed as body weight loss at 200 mg/kg, po QD for 21 days measured on day 19; type: organism-based, HCT-116; parameters: dose 200 mg/kg, route oral; details: in vivo, 504 h
Mus musculus [13] = assay: Toxicity in athymic nu/nu Harlan mouse xenografted with human HCT116 cells assessed as body weight loss at 300 mg/kg, po QD for 21 days measured on day 19; type: organism-based, HCT-116; parameters: dose 300 mg/kg, route oral; details: in vivo, 504 h
HCT-116 [14] = assay: Antitumor activity against human HCT116 cells xenografted in athymic nu/nu Harlan mouse assessed as tumor growth inhibition at 200 mg/kg, po qd for 21 days measured on day 22; type: functional; details: read-out: TGI
Mus musculus [15] = assay: Toxicity in athymic nu/nu Harlan mouse xenografted with human HCT116 cells assessed as body weight loss at 100 mg/kg, po QD for 21 days measured on day 8; type: organism-based, HCT-116; parameters: dose 100 mg/kg, route oral; details: in vivo, 504 h
HCT-116 [16] = assay: Antitumor activity against human HCT116 cells xenografted in athymic nu/nu Harlan mouse assessed as tumor growth inhibition at 50 mg/kg, po qd for 21 days measured on day 22; type: functional; details: read-out: TGI
Mus musculus [17] = assay: Toxicity in athymic nu/nu Harlan mouse xenografted with human HCT116 cells assessed as mouse survival at 100 mg/kg, po QD for 21 days measured on day 22; type: organism-based, HCT-116; parameters: dose 100 mg/kg, route oral; details: in vivo, 504 h
Mus musculus [18] = assay: Toxicity in athymic nu/nu Harlan mouse xenografted with human HCT116 cells assessed as mouse survival at 50 mg/kg, po QD for 21 days measured on day 22; type: organism-based, HCT-116; parameters: dose 50 mg/kg, route oral; details: in vivo, 504 h
HCT-116 [19] = assay: Antitumor activity against human HCT116 cells xenografted in athymic nu/nu Harlan mouse assessed as tumor growth inhibition at 100 mg/kg, po qd for 21 days measured on day 22; type: functional; details: read-out: TGI

Q: Which half-life [1] does the source give for O=C(CCCCCCC(=O)Nc1ccccc1)NO [VORINOSTAT] here?
A: > 1 h

Q: And the half-life [2]?
A: > 1 h

Q: And the Activity (Mus musculus [3])?
A: 1.9%

Q: What about the solubility kinetic [4] of the same compound?
A: > 200 µM

Q: And the Activity (Mus musculus [5])?
A: 8.9%

Q: What about the Activity (Mus musculus [6]) of the same compound?
A: Non-toxic

Q: What about the half-life [7] of the same compound?
A: > 1 h

Q: What about the bioavailability [8] of the same compound?
A: 8.3%

Q: What about the IC50 (COLO 205) of the same compound?
A: 2.12 µM

Q: And the Activity (Mus musculus [9])?
A: 9.3%

Q: What about the Activity (Mus musculus [10]) of the same compound?
A: Non-toxic

Q: And the half-life [11]?
A: > 1 h

Q: What about the Activity (Mus musculus [12]) of the same compound?
A: 4.6%

Q: And the Activity (Mus musculus [13])?
A: 5.5%

Q: With CCCCc1nc2cc(/C=C/C(=O)NO)ccc2n1CCNC(C)C.Cl.Cl as the compound, how does the half-life [1] read?
A: > 1 h

Q: What about the half-life [2] of the same compound?
A: 0.055 h

Q: And the inhibition in vivo at 200 mg/kg (HCT-116 [14])?
A: 90%

Q: What about the solubility kinetic [4] of the same compound?
A: > 200 µM

Q: And the Activity (Mus musculus [15])?
A: 5%

Q: And the half-life [7]?
A: 0.6 h

Q: What about the inhibition in vivo at 50 mg/kg (HCT-116 [16]) of the same compound?
A: 19%

Q: And the Activity (Mus musculus [17])?
A: Non-toxic

Q: What about the half-life [11] of the same compound?
A: > 1 h

Q: And the Activity (Mus musculus [18])?
A: Non-toxic

Q: What about the Activity (Mus musculus [12]) of the same compound?
A: 7.9%

Q: What about the inhibition in vivo at 100 mg/kg (HCT-116 [19]) of the same compound?
A: 60%

Reference: ChEMBL document CHEMBL1828590 (J Med Chem, 2011)
